Results as given in publication PMC5013553, “A substrate-driven allosteric switch that enhances PDI catalytic activity” (Nature Communications, 2016).

Tests used:
[1] = molecular target: T1, Protein disulfide isomerase (PDI) (Homo sapiens, UniProt P07237, I289A); test: ANS fluorescence binding (λex […] nm), displaced by bepristats, absent with I272A
T1 construct: gene P4HB; isolated b′x domain; full-length PDI
T1 sequence (P07237 236-367 I289A limits assumed): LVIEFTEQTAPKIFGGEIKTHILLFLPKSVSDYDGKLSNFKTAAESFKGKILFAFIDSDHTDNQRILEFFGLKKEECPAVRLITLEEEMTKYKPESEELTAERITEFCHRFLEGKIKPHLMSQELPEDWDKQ

[2] = molecular target: T2, Protein disulfide isomerase (PDI) (Homo sapiens, UniProt P07237); test: insulin turbidimetric reductase assay; ANS displacement from PDI and b′x, intrinsic Trp fluorescence, domain mapping; format: biochemical; design: gene P4HB; full-length PDI; also abb′ (residues 1–331), b′xa′ (residues 219–462) and b′x
[3] = molecular target: T2, Protein disulfide isomerase (PDI); test: insulin turbidimetric and di-eosin-GSSG reductase assays; format: biochemical; design: gene P4HB; full-length PDI

T2 sequence (P07237 18-508): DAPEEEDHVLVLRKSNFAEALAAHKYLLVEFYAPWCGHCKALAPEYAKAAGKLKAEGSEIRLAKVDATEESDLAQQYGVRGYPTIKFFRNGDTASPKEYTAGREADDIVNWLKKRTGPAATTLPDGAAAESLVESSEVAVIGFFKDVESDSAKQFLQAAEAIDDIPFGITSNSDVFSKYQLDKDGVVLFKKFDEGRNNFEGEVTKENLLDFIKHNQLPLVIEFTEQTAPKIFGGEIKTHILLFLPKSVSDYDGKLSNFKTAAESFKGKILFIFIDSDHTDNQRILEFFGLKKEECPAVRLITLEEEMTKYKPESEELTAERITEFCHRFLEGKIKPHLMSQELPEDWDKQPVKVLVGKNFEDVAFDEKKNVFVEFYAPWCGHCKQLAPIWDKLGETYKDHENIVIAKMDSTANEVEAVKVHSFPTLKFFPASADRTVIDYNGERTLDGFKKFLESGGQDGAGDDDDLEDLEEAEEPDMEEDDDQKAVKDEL

Row | Compound | IC50 [2] | also measured
1 | O=S(=O)(O)c1cccc2cccc(Nc3ccccc3)c12 [ANS, 1-anilinonaphthalene-8-sulfonic acid] |  | ANS fluorescence binding (λex 370 nm), displaced by bepristats, absent with I272 [1]: ANS fluorescence was prominent on incubation with the isolated b′x domain and weak on incubation with isolated a, a′
2 | CCN(C)C(=O)C1(CCOc2ccccc2)CCN(Cc2ccc(O)c(Cl)c2)CC1 [bepristat 1a] | ~700 nM | 
3 | C[C@@H]1O[C@@H](OC[C@H]2O[C@@H](Oc3c(-c4ccc(O)c(O)c4)oc4cc(O)cc(O)c4c3=O)[C@H](O)[C@@H](O)[C@@H]2O)[C@H](O)[C@H](O)[C@H]1O [Q-3-R, quercetin-3-rutinoside] |  | insulin turbidimetric and di-eosin-GSSG reductase assays [3]: these other inhibitors all blocked PDI-mediated cleavage of di-eosin-GSSG when used at concentrations required to inhibit activity
4 | bepristat 2a | ~1200 nM | 
